From US9724382B2, “Pharmaceutical compositions comprising cyclosporin” (PARI Pharma GmbH, priority 2005, dated 2017)
Where two headings read alike, the source gives them in different places.

Columns and labels:
calu-3 cells = details: depending on the concentration; cited from earlier work
[1] = tested on: calu-3 cells (confluent monolayer); details: for TEER after 2 h Average / TEER after 24 h Average: human
[2] = tested on: calu-3 cells (confluent monolayer); assay: Trans-epithelial electrical resistance (TEER) of calu-3 monolayer; details: for TEER [% of 0 hours]: positive control 0.1%

SMILES: CC(O)CO (stereo not drawn) [Propylene glycol, propylene glycol]
- effect on calu-3 cells (calu-3 cells): kills calu-3 cells
- effect on the integrity of the calu-3 monolayer [1]: significant and largely non-reversible damage
- TEER after 2 h Average ([1]; 0.1 %): 116%
- TEER after 2 h Average ([1]; 0.5 %): 120%
- TEER after 2 h Average ([1]; 5 %): 36%
- TEER after 2 h Average ([1]; 10 %): 14%
- TEER after 24 h Average ([1]; 0.1 %): 83%
- TEER after 24 h Average ([1]; 0.5 %): 83%
- TEER after 24 h Average ([1]; 5 %): 75%
- TEER after 24 h Average ([1]; 10 %): 43%

SMILES: CCCCCCCCCCCCOS(=O)(=O)[O-].[Na+] [SDS, sodium dodecyl sulphate]
- TEER after 2 h Average ([2]; Conc. 0.001 %): 114%
- TEER after 24 h Average ([2]; Conc. 0.001 %): 107%
- TEER after 2 h Average ([2]; Conc. 0.010 %): 7%
- TEER after 24 h Average ([2]; Conc. 0.010 %): 2%
- TEER after 2 h Average ([2]; Conc. 0.100 %): 3%
- TEER after 24 h Average ([2]; Conc. 0.100 %): 2%
- effect on the integrity of the calu-3 monolayer ([2]; conclusion from TEER values): significant and largely non-reversible damage
- TEER [% of 0 hours] ([2]; time 0 h): 20%
- TEER [% of 0 hours] ([2]; time 1 h): 19%
- TEER [% of 0 hours] ([2]; time 2 h): 19%
- TEER [% of 0 hours] ([2]; time 24 h): 11%
